In patent publication EP2078717A1, “6-Pyrimidinyl-pyrimid-2-one derivative” (sanofi-aventis, priority 2008, dated 2009):
Where two headings read alike, the source gives them in different places.

Columns and labels:
normal mice = assay: Object recognition (OR) test of episodic memory in normal mice; format: in vivo; details: for minimal effective dose: Mus musculus, po
tau phosphorylation = assay: Inhibitory activity on tau phosphorylation in vivo (pS396 Western blot of cortex); set-up: species or system male CD-1 mice; details: 10 mg/kg p.o., cortex removed after 1 hour, pS396 antibody; ** means statistically significant
Method: Experiment 7 : Inhibitory activity on tau phosphorylation in vivo
Test compound was administrated to male CD-1 mice of 5-6 weeks weighing 25-35 g (Charles River Japan, inc.) at 10 mg/kg p.o. (0.5% polyethylene glycol sorbitan monolaurate 80 (Tween80)/water suspension) and after 1 hour, mice were decapitated and cortex was promptly removed, followed by being frozen in liquid nitrogen. […] Protein concentrations were determined using DC protein assay kit (BIO-RAD). Supernatants were diluted with sample buffer (62.5 mM Tris-HCl, 25% glycerol, 2% SDS, 0.01% Bromophenol Blue, pH 6.8) to adjust the protein concentrations around […] and then boiled for 5 minutes. Samples (10 µ g) were separated on 10% sodium dodecyl sulfate-polyacrylamide electrophoresis (SDS-PAGE) mini slab gels and transferred onto polyvinylidene difluoride (PVDF) membranes. Membranes were incubated with phosphate buffered saline (PBS) containing 5% non-fat milk for 1 hour at room temperature and then probed with pS396 anti-body (BIOSOURCE) over night at 4 °C. Anti-rabbit IgG horseradish peroxidase (HRP) conjugated antibody (Promega) was used as secondary antibody. Membranes were visualized by Enhanced ChemiLuminescence (ECL) kit (Amersham Bioscience) and detected by LAS 1000 (Fuji Photo Film).

scopolamine-treated mice = assay: Object recognition (OR) test of episodic memory in scopolamine-treated mice; details: for recognition index (RI): scopolamine 1 mg/kg 30 minutes before acquisition, 3 hours inter-trial interval

Structure (SMILES): Cc1nc(-c2ccc([C@H]3CN(c4nc(-c5ccncn5)cc(=O)n4C)CCO3)cc2)no1 [Compound of the present invention]
- recognition index (RI) (normal mice; 1 mg/kg p.o. 1 hour before acquisition and retention sessions, 24 hours inter-trial interval): 50.3%
- recognition index (RI) (normal mice; 3 mg/kg p.o. 1 hour before acquisition and retention sessions, 24 hours inter-trial interval): 52.6%
- recognition index (RI) (normal mice; 3 mg/kg p.o. once immediately after the acquisition phase, 24 hours inter-trial interval): 54.6%
- recognition index (RI) (normal mice; 10 mg/kg p.o. 1 hour before acquisition and retention sessions, 24 hours inter-trial interval): 60.4%
- recognition index (RI) (normal mice; 10 mg/kg p.o. once immediately after the acquisition phase, 24 hours inter-trial interval): 58.6%
- recognition index (RI) (normal mice; 30 mg/kg p.o. 1 hour before acquisition and retention sessions, 24 hours inter-trial interval): 62.9%
- recognition index (RI) (normal mice; 30 mg/kg p.o. once immediately after the acquisition phase, 24 hours inter-trial interval): 60.0%
- minimal effective dose (normal mice; normal mice, summary, read-out: minimal effective dose, increases episodic memory and consolidates episodic memory trace): 10 mg/kg
- minimal effective dose (normal mice; p.o. 1 hour before acquisition and retention sessions, 24 hours inter-trial interval, read-out: dose from which memory performance increased significantly): ≥ 10 mg/kg
- minimal effective dose (normal mice; p.o. once immediately after the acquisition phase, read-out: minimal effective dose, consolidation of episodic memory): 10 mg/kg
- recognition index (RI) (normal mice; normal mice of the scopolamine experiment, 10 mg/kg p.o. 1 hour before acquisition, 3 hours inter-trial interval): 61.7%
- recognition index (RI) (normal mice; normal mice of the scopolamine experiment, 30 mg/kg p.o. 1 hour before acquisition, 3 hours inter-trial interval): 59.7%
- in vivo 10 mg/kg, % phosphorylation against vehicle (tau phosphorylation): 58.14** %
- minimal effective dose (scopolamine-treated mice; Mus musculus, po, read-out: Minimal Effective Dose, prevention of episodic memory deficits): 10 mg/kg
- recognition index (RI) (scopolamine-treated mice; 10 mg/kg p.o. 1 hour before acquisition): 52.7%
- recognition index (RI) (scopolamine-treated mice; 30 mg/kg p.o. 1 hour before acquisition): 60.4%
- effect on episodic memory deficits induced by scopolamine (scopolamine-treated mice; single oral administration 3mg/kg): ineffective
- effect on episodic memory deficits induced by scopolamine (scopolamine-treated mice; single oral administration 10 mg/kg, 30 minutes before scopolamine, 1 hour before acquisition): totally reversed

Structure (SMILES): Cn1c(N2CCOC(c3nc(-c4ccccc4)no3)C2)nc(-c2ccncn2)cc1=O (centres unmarked) [compound 1]
- in vivo 10 mg/kg, % phosphorylation against vehicle (tau phosphorylation): 92.12%

Structure (SMILES): Cn1c(N2CCOC(c3noc(-c4ccccc4)n3)C2)nc(-c2ccncn2)cc1=O (centres unmarked) [compound 2, 1-Methyl-2-[2-(5-phenyl-[1,2,4]oxadiazol-3-yl)-morpholin-4-yl]-1H-[4,4']bipyrimidinyl-6-one]
- in vivo 10 mg/kg, % phosphorylation against vehicle (tau phosphorylation): 79.21%

Structure (SMILES): Cn1c(N2CCOC(c3ccc(-c4ccoc4)cc3)C2)nc(-c2ccncn2)cc1=O (centres unmarked) [compound 3, 2-[2-(4-Furan-3-yl-phenyl)-morpholin-4-yl]-1-methyl-1H-[4,4']bipyrimidinyl-6-one]
- in vivo 10 mg/kg, % phosphorylation against vehicle (tau phosphorylation): 71.44%

Structure (SMILES): Cn1ccnc1-c1ccc(C2CN(c3nc(-c4ccncn4)cc(=O)n3C)CCO2)cc1 (centres unmarked) [compound 4, 1-Methyl-2-{2-[4-(1-methyl-1H-imidazol-2-yl)-phenyl]-morpholin-4-yl}-1H-[4,4']bipyrimidinyl-6-one]
- in vivo 10 mg/kg, % phosphorylation against vehicle (tau phosphorylation): 71.21%

Structure (SMILES): Cn1c(N2CCOC(c3ccc(-n4cccn4)cc3)C2)nc(-c2ccncn2)cc1=O (centres unmarked) [compound 5, 1-Methyl-2-[2-(4-pyrazol-1-yl-phenyl)-morpholin-4-yl]-1H-[4,4']bipyrimidinyl-6-one]
- in vivo 10 mg/kg, % phosphorylation against vehicle (tau phosphorylation): 53.35** %
